Here are results for five compounds from patent US20040142910A1, “Sulfonated styrene copolymers for medical uses” (Aegis Biosciences LLC, priority 2002, published 2004).

For series [1] the following is noted: treatment of asthma; cited from earlier work.
Series [2] has as its system Human umbilical vein ECs (HUVECs). In words: EC differentiation on three-dimensional fibrin gels. The following applies: bFGF 30 ng/nL. Format: cell-based. Here is the method:
(§1) Angiogenesis is a complex process that involves the activation of quiescent endothelial cells (ECs) to a proliferative and migratory phenotype and, subsequently, their redifferentiation to form vascular tubes. We hypothesized that NO contributes to angiogenesis by terminating the proliferative action of angiogenic growth factors and initiating a genetic program of EC differentiation. Human umbilical vein ECs (HUVECs) and calf pulmonary artery ECs (CPAECs) were grown directly on plastic dishes or on three-dimensional fibrin matrices. […] The addition of basic fibroblast growth factor (bFGF, […]) increased the expression of endothelial NO synthase mRNA and the production of NO in both cell types when cultured on three-dimensional fibrin gels and produced profound morphological changes characterized by the appearance of extensive capillary-like vascular structures and the loss of EC monolayers. These changes were quantified by measuring total tube length per low-power field (X 100), and a differentiation index was derived using the ratio of tube length over area covered by residual EC monolayer. In the absence of additional angiogenic factors, the differentiation index was low for both HUVECs and CPAECs (control, 1.16plus or minus0.19 and 2.07plus or minus0.87, respectively).

For series [3], the system named is calf pulmonary artery ECs (CPAECs). The description is as above. Format: cell-based. The following applies: bFGF 30 ng/nL. The protocol:
as §1

In series [4] the test system is Human umbilical vein ECs (HUVECs). As to the kind of experiment: endothelial cell proliferation in the absence of fibrin. The following applies: SNAP 0.1 and 0.4 mmol/L. It is filed as cell-based. Here is the method: as §1
Series [5] relates to calf pulmonary artery ECs (CPAECs). Described as above. It is filed as cell-based. The following applies: SNAP 0.1 and 0.4 mmol/L, L-NAME, L-NMMA 1 mmol/L. Here is the method: as §1
A further series concerns endothelial cells (ECs). As to the kind of experiment: EC tube formation in response to bFGF. It is filed as cell-based. Here is the method: as §1

Regarding `Cn1c(=O)c2[nH]cnc2n(C)c1=O` [theophylline], in series [1], the “minimum effective blood concentrations” value was 6 to 10 µg/mL.

On to bFGF: basic fibroblast growth factor, for which the “expression of endothelial NO synthase mRNA and production of NO” value in series [2] and in series [3] was “increased” throughout.

Consider `CC(=O)N[C@H](C(=O)O)C(C)(C)SN=O` (racemic) [SNAP, S-nitroso-N-acetylpenicillamine], for which the proliferation result in series [4] and in series [5] was “dose-dependent inhibition” each time.

Take `CNC(=N)NCCC[C@H](N)C(=O)O` [L-NMMA, N(G)-monomethyl-L- arginine]: in series [5], the proliferation result is given as “significantly increased”.

Take `COC(=O)[C@@H](N)CCCNC(=N)N[N+](=O)[O-]` [L-NAME, N(G)-nitro-L-arginine methyl ester]: in series [5], the proliferation entry was “significantly increased”. For the same compound, the “EC tube formation in response to bFGF” value in the series with endothelial cells (ECs) is listed as “inhibited EC tube formation”.
